Assay: Stability of DPTM in plasma, tissue homogenates, urine and feces (QC samples)
Format: physicochemical, rat
Protocol: Stability of DPTM and IS was examined by comparing the analytes’ concentrations in freshly prepared samples with those of samples maintained under different conditions, including the 24 h storage at room temperature, three freeze and thaw cycles, and storage at −70 °C for 4 weeks, respectively. Analyzing three levels of QC samples were used to assess the stability (accuracy and precision) with six replicates.
For the construction of calibration curves, 20 μL of each corresponding standard working solution (0.05, 0.2, 0.5, 1, 2, 5, 10, 20 and 40 μg/mL) was evaporated to dryness by nitrogen at 40 °C. The calibration standards (5, 20, 50, 100, 200, 500, 1000, 2000 and 4000 ng/mL) were prepared by adding 200 μL of blank plasma, various tissue homogenates (including heart, liver, spleen, lung, kidney, large intestine, small intestine, ileum, cecum, bladder, brain, jejunum and colon) or urine and feces to the residue, respectively. Quality control (QC) samples (10, 200 and 3000 ng/mL) were obtained by the same way as the calibration standards. All solutions were stored at −70 °C before use for no longer than 4 weeks.

C=CC1(C)CC(OC(=O)CSc2nc(N)cc(N)n2)C2(C)C(C)CCC3(CCC(=O)C32)C(C)C1O (centres unmarked) [DPTM, 14-O-[(4,6-Diaminopyrimidine-2-yl)thioacetyl] mutilin]
Stability RE (Kidney, 10 ng/mL, Short-term (25 °C, 24 h)): 3.4% | Stability RE (Kidney, 200 ng/mL, Freeze-thaw Cycles): 2.3% | Stability RE (Kidney, 200 ng/mL, Long-term (−70 °C, 4 Weeks)): 1.9% | Stability RE (Kidney, 200 ng/mL, Short-term (25 °C, 24 h)): 0.9% | Stability RE (Kidney, 3000 ng/mL, Freeze-thaw Cycles): 10.1% | Stability RE (Kidney, 3000 ng/mL, Long-term (−70 °C, 4 Weeks)): 9.9% | Stability RE (Kidney, 3000 ng/mL, Short-term (25 °C, 24 h)): 3.2% | Stability RE (Large intestine, 10 ng/mL, Freeze-thaw Cycles): 6.3% | Stability RE (Large intestine, 10 ng/mL, Long-term (−70 °C, 4 Weeks)): 6.9% | Stability RE (Large intestine, 10 ng/mL, Short-term (25 °C, 24 h)): 1.9% | Stability RE (Large intestine, 200 ng/mL, Freeze-thaw Cycles): 2.4% | Stability RE (Large intestine, 200 ng/mL, Long-term (−70 °C, 4 Weeks)): 2.2% | Stability RE (Large intestine, 200 ng/mL, Short-term (25 °C, 24 h)): 5.7% | Stability RE (Large intestine, 3000 ng/mL, Freeze-thaw Cycles): 3.1% | Stability RE (Large intestine, 3000 ng/mL, Long-term (−70 °C, 4 Weeks)): 3.5% | Stability RE (Large intestine, 3000 ng/mL, Short-term (25 °C, 24 h)): −0.9% | Stability RE (Liver, 10 ng/mL, Freeze-thaw Cycles): 3.3% | Stability RE (Liver, 10 ng/mL, Long-term (−70 °C, 4 Weeks)): 3.4% | Stability RE (Liver, 10 ng/mL, Short-term (25 °C, 24 h)): 2.9% | Stability RE (Liver, 200 ng/mL, Freeze-thaw Cycles): 3.4% | Stability RE (Liver, 200 ng/mL, Long-term (−70 °C, 4 Weeks)): 3.6% | Stability RE (Liver, 200 ng/mL, Short-term (25 °C, 24 h)): 3.3% | Stability RE (Liver, 3000 ng/mL, Freeze-thaw Cycles): 1.9% | Stability RE (Liver, 3000 ng/mL, Long-term (−70 °C, 4 Weeks)): 2.1% | Stability RE (Liver, 3000 ng/mL, Short-term (25 °C, 24 h)): 6.1% | Stability RE (Lung, 10 ng/mL, Freeze-thaw Cycles): 2.5% | Stability RE (Lung, 10 ng/mL, Long-term (−70 °C, 4 Weeks)): 2.9% | Stability RE (Lung, 10 ng/mL, Short-term (25 °C, 24 h)): 3.3% | Stability RE (Lung, 200 ng/mL, Freeze-thaw Cycles): 3.1% | Stability RE (Lung, 200 ng/mL, Long-term (−70 °C, 4 Weeks)): 3.5% | Stability RE (Lung, 200 ng/mL, Short-term (25 °C, 24 h)): 2.1% | Stability RE (Lung, 3000 ng/mL, Freeze-thaw Cycles): 7.6% | Stability RE (Lung, 3000 ng/mL, Long-term (−70 °C, 4 Weeks)): 7.5% | Stability RE (Lung, 3000 ng/mL, Short-term (25 °C, 24 h)): 1.3% | Stability RE (Small intestine, 10 ng/mL, Freeze-thaw Cycles): 4.9% | Stability RE (Small intestine, 10 ng/mL, Long-term (−70 °C, 4 Weeks)): 4.6% | Stability RE (Small intestine, 10 ng/mL, Short-term (25 °C, 24 h)): 1.3% | Stability RE (Small intestine, 200 ng/mL, Freeze-thaw Cycles): 3.2% | Stability RE (Small intestine, 200 ng/mL, Long-term (−70 °C, 4 Weeks)): 3.6% | Stability RE (Small intestine, 200 ng/mL, Short-term (25 °C, 24 h)): 3.7% | Stability RE (Small intestine, 3000 ng/mL, Freeze-thaw Cycles): 3.9% | Stability RE (Small intestine, 3000 ng/mL, Long-term (−70 °C, 4 Weeks)): 3.8% | Stability RE (Small intestine, 3000 ng/mL, Short-term (25 °C, 24 h)): 5.3% | Stability RE (Spleen, 10 ng/mL, Freeze-thaw Cycles): 3.6% | Stability RE (Spleen, 10 ng/mL, Long-term (−70 °C, 4 Weeks)): 3.3% | Stability RE (Spleen, 10 ng/mL, Short-term (25 °C, 24 h)): 3.7% | Stability RE (Spleen, 200 ng/mL, Freeze-thaw Cycles): 7.9% | Stability RE (Spleen, 200 ng/mL, Long-term (−70 °C, 4 Weeks)): 7.1% | Stability RE (Spleen, 200 ng/mL, Short-term (25 °C, 24 h)): 7.2% | Stability RE (Spleen, 3000 ng/mL, Freeze-thaw Cycles): 5.6% | Stability RE (Spleen, 3000 ng/mL, Long-term (−70 °C, 4 Weeks)): 5.7% | Stability RE (Spleen, 3000 ng/mL, Short-term (25 °C, 24 h)): 5.9% | results of stability experiments (% RE and % RSD) (plasma, tissue homogenates, urine and feces, 24 h at room temperature, three freeze and thaw cycles, −70 °C for 4 weeks): ≤ 15%

From paper PMC6413085, “A Validated HPLC-MS/MS Assay for 14-O-[(4,6-Diaminopyrimidine-2-yl)thioacetyl] Mutilin in Biological Samples and Its Pharmacokinetic, Distribution and Excretion via Urine and Feces in Rats” (Molecules, 2019)
